One compound from patent US20230293530A1, “AGENTS FOR SENSITIZING SOLID TUMORS TO TREATMENT” (Yeda Research and Development Co. Ltd., priority 2020, published 2023) can be followed below.

The structures appear in SMILES notation.

One test concerns MC38 cells. Kind of test: Cell viability by crystal violet staining, MC38. As to conditions: 300 µM mizoribine, 24 h. It is filed as cell-based, mouse. Here is the method: A) Purine/pyrimidine ratio is increased upon nutrient deprivation in […] colon cancer cells. MC38 cells were grown in either regular medium or in medium without glucose for 24 h. Nucleotide levels were measured by LC-MS. Purine/pyrimidine ratio was calculated by dividing (AMP+GMP) AUC by (UMP+CMP) AUC. B) 4T1 cells with and without shASS1 were grown in glucose free medium either supplemented or not with 10 mM L-Name for 48 hrs. Nucleotide levels were measured by LC-MS. Purine/pyrimidine ratio was calculated by dividing the sum levels of (AMP+GMP) by the sum levels of (UMP+CMP+TMP). […] MC38 cells were grown either with or without 300 µM mizoribine for 24 h. Nucleotide levels were measured by LC-MS. […] 4T1 (left panel) and MC38 cells (right panel) were grown for 24 h with or without 300 µM mizoribine. Cell viability was measured by crystal violet staining. Each experiment was conducted with biological and technical replicates and repeated at least three times. All error bars represent SER. * P<0.05, ** denotes P<0.01, ***P<0.001.

For test [1], the system named is NSCLC PDX explants with autologous CD8+ T cells. Kind of test: Co-culture of NSCLC PDX tumor explants with autologous CD8+ T cells, IFNγ ELISA. It is filed as cell-based, human. From the text: Two patients bearing metastatic non-small cell lung cancer (NSCLC) were included in this study. Blood samples and fresh tumor tissue samples were procured just after their biopsy with patient consent and with Helsinki approval (number 0093-19-SOR). The samples were placed in serum free DMEM (Gibco) media then processed for implantation in NSG (NOD scid gamma) mice. Tumor tissue samples were implanted subcutaneously in dorsal flanks of the mice to form patient-derived xenografts (PDXs). All animal experiments were done under Institutional Animal Care and Use Committee (IACUC) of Ben-Gurion University of the Negev (BGU’s IACUC) according to specified protocols aiming to ensure animal welfare and reduce su □ ering. The Animal ethical clearance protocol number used for this research is IL-80-12-2015. After isolation of peripheral blood mononuclear cells (PBMCs) from the peripheral blood of the patients according to standard protocol using Lymphocyte Separation Medium (LSM, MP Biomedicals, SKU 0850494-CF), CD8^+ T cells were isolated from PBMCs by employing human CD8 Microbeads (Miltenyi Biotec, 130-045-201), LS column (Miltenyi Biotec, 130-042-401) and MidiMACS Separator (130-042-302) following manufacturer’s protocol. For culturing and maintenance of CD8 T cells, RPMI containing 10% human male AB plasma (Sigma, H4522), 1 mM sodium pyruvate, 2 mM L-glutamine, 0.1 mM MEM non-essential amino acids, 1% penicillin/streptomycin, 10 mM HEPES (Life Technologies), 200 IU/mL recombinant human IL-2 (PeproTech) and 50 ng/mL anti-human CD3 Antibody (BioLegend, 317302) were used for the first 48 hrs followed by culturing and passaging in media containing 200 IU/mL of IL-2.
2×2×2 mm^3 tumor tissue explants were cut from PDXs with a specific tissue cutter and seeded singly in 48 well flat-bottom plates and incubated with either mizoribine (0.3 mM) in 400 µl of media or with only media for 10 hrs. Then, explants were washed once and transferred into new 48 well flat-bottom plates containing 2×10^5 CD8+T cells/well along with nivolumab (Opdivo, 20 µg/mL), pembrolizumab (Keytruda, 20 µg/mL) or mock solventin fresh 400 µl RPMI containing 20 IU/ml ofIL-2. After 18 hours of incubation, the supernatant was collected from the wells and then assayed for standard IFNγ ELISA assay (ELISA MAX, Biolegend) according to manufacturer’s instructions.
Two patients bearing metastatic non-small cell lung cancer (NSCLC) were included in this study. Blood samples and fresh tumor tissue samples were procured just after their biopsy with patient consent and with Helsinki approval (number 0093-19-SOR). The samples were placed in serum free DMEM (Gibco) media then processed for implantation in NSG (NOD scid gamma) mice (NOD.Cg-Prkdcscid Il2rgtm1Wjl, The Jackson Laboratory). Tumor tissue samples were implanted subcutaneously in dorsal flanks of the 7-9 weeks old male mice to form patient-derived xenografts (PDXs).
After isolation of peripheral blood mononuclear cells (PBMCs) from the peripheral blood of the patients according to standard protocol using Lymphocyte Separation Medium (LSM, MP Biomedicals, SKU 0850494-CF), CD8^+ T cells were isolated from PBMCs by employing human CD8 Microbeads (Miltenyi Biotec, 130-045-201), LS column (Miltenyi Biotec, 130-042-401) and MidiMACS Separator (130-042-302) following manufacturer’s protocol. For culturing and maintenance of CD8 T cells, RPMI containing 10% human male AB plasma (Sigma, H4522), 1 mM sodium pyruvate, 2 mM L-glutamine, 0.1 mM MEM non-essential amino acids, 1% penicillin/streptomycin, 10 mM HEPES (Life Technologies), 200 IU/mL recombinant human IL-2 (PeproTech) and 50 ng/mL anti-human CD3 Antibody (BioLegend, 317302) were used for the first 48 hrs followed by culturing and passaging in media containing 200 IU/mL of IL-2.
PDXs from patients with lung cancer non responsive to anti-PD1 were exposed to no treatment, to mizoribine, or to either EDHB (left panel) or Viagra (right panel). […]
For orientation: In an ELISA, binding on a coated surface is turned into a signal by an enzyme label.

On to `NC(=O)c1ncn([C@@H]2O[C@H](CO)[C@@H](O)[C@H]2O)c1O` [Mizoribine, mizoribine], for which, in the test with MC38 cells, the “cancer cell proliferation (cell viability, crystal violet)” value is “restricts ASS1-overexpressing cancer cell proliferation”. Further, the “human IFNγ in supernatant, explant alone” value in test [1] (PDX explant alone treated with mizoribine 0.3 mM, no T cells) was “did not detect human IFNγ”. The “IFNγ secretion by autologous CD8+ T cells, anti-PD1 plus mizoribine-treated explants” value in test [1] (explants pre-treated with mizoribine 0.3 mM 10 hrs, nivolumab or pembrolizumab 20 µg/mL, 18 hours) is “significant elevation in secretion of IFN-γ”. In test [1] (mizoribine-treated explants with autologous CD8+T cells), the “human IFNγ levels, explant plus autologous CD8+ T cells, no anti-PD1” value was “did not induce detectable IFNγ levels”.
